Data taken from publication PMC11879280, “Antimicrobial activity of peptoids against Metallo-β-lactamase-producing Klebsiella pneumoniae, Acinetobacter baumannii, Pseudomonas aeruginosa, and other WHO priority pathogens, including Candida auris” (Journal of Applied Microbiology, 2025).
Converted amounts (≈) assume the structure as drawn. Square brackets hold non-standard residues; d marks the D form. Peptide text beside a SMILES is read from it. Nspe = C[C@H](NCC(=O)O)c1ccccc1; NDecylGly = CCCCCCCCCCNCC(=O)O; Nlys = NCCCCNCC(=O)O

How the values were obtained:
C. auris CBS10913 [1] = assay: Checkerboard microdilution synergy test; assay type: cell-based, Candida auris
Protocol: (§1) The checkerboard microdilution test was performed to determine the fractional inhibitory concentration (FIC) of selected antimicrobials and assess whether the combination had synergistic, antagonistic, or indifferent effects (Anon [2016]) against strains of K. pneumoniae or C. auris. […] Additionally, a strain susceptible to ciprofloxacin was tested to observe the outcome of its combination with TM8 as a representative case from susceptible isolates. […] Then, 10 µl of bacteria (5 × 10^6 CFU ml^−1) or C. auris (2.5 × 10^4 CFU ml^−1) were added to each well, except for the sterility control well. […] The sterility control wells contained only MHB (or RPMI in case of C. auris), and the growth control contained 110 µl of microbial inoculum with no antimicrobials. Subsequently, the plates were incubated for 18- 24 hours at 36 ± 1 °C.
(§2) The FIC for each combination interaction was calculated as follows:
(§3) Then, the summation of FIC (ƩFIC) was calculated for each antimicrobial combination as follows: ƩFIC = FICA + FICB. The results were interpretated as follows: Synergy if ƩFIC ≤ 0.5; Additive if 0.5<ƩFIC ≤ 1; Indifference if […] ≤ 4; and Antagonism if ƩFIC > 4 (Odds [2003]). All antimicrobial synergy experiments were repeated in at least two independent runs.

C. auris CBS12373 = assay: Checkerboard microdilution synergy test; assay type: cell-based, Candida auris
Protocol: as §1, §2, §3

[2] = tested on: C. auris CBS12373 biofilm; assay: Initial biofilm inhibition, MTT reduction assay; assay type: cell-based, Candida auris
K. pneumoniae JIE2713 = assay: Checkerboard microdilution synergy test; assay type: cell-based, Klebsiella pneumoniae
Protocol: (§4) Then, 10 µl of bacteria (5 × 10^6 CFU ml^−1) or C. auris (2.5 × 10^4 CFU ml^−1) were added to each well, except for the sterility control well. […] The sterility control wells contained only MHB (or RPMI in case of C. auris), and the growth control contained 110 µl of microbial inoculum with no antimicrobials. Subsequently, the plates were incubated for 18- 24 hours at 36 ± 1 °C.
as §2
(§5) Then, the summation of FIC (ƩFIC) was calculated for each antimicrobial combination as follows: ƩFIC = FICA + FICB. […] All antimicrobial synergy experiments were repeated in at least two independent runs.

K. pneumoniae JIE2709 = assay: Checkerboard microdilution synergy test; assay type: cell-based, Klebsiella pneumoniae
Protocol: as §4, §2, §5

C. auris CBS 10913 = assay: Sorbitol protection assay; assay type: cell-based, Candida auris; conditions: CBS10913
Source text: Caspofungin served as a positive control for the assay (Leite et al. [2014]).

[3] = tested on: C. auris CBS12373 biofilm; assay type: cell-based, Candida auris
Protocol: (§6) Another set of experiments was conducted under similar conditions similar to those used for MTT assay.

[4] = tested on: C. auris CBS12373 biofilm; assay: Initial biofilm inhibition, crystal violet assay; assay type: cell-based, Candida auris; conditions: crystal violet staining
Protocol: as §6

C. auris CBS10913 [5] = assay: Membrane integrity by flow cytometry (SYTO 9 / PI); assay type: cell-based, Candida auris
Protocol: Afterwards, the cells were stained with SYTO 9 (7.5 µmol l^−1) and PI (30 µmol l^−1) for an additional 15 min in the dark at room temperature. Following washing, samples were then analysed for membrane integrity on a BD FACSymphony^TM A3, with a minimum of 10 000 events recorded per sample.

MDR ESKAPE pathogens = conditions: ref Nielsen et al. [2022]; cited from earlier work
Source text: TM8, TM15, and TM19 featured terminal alkyl tails of either N-decyl or N-tridecyl, while all of them contained chiral aromatic Nspe along with NLys residues. Similarly, TM2, TM4, TM12, TM14, and TM19 w ... || Lipopeptoids can self-assemble into micellar macromolecules due to the hydrophobic tail domains driven by the intermolecular hydrophobic interactions. […] In a ...

Structure (SMILES): CCCCCCCCCCNCC(=O)N(CCCCN)CC(=O)N(CC(=O)N(CC(=O)N(CCCCN)CC(=O)N(CC(=O)N(CC(N)=O)[C@@H](C)c1ccccc1)[C@@H](C)c1ccccc1)[C@@H](C)c1ccccc1)[C@@H](C)c1ccccc1 [TM8] (H-[NDecylGly][Nlys][Nspe][Nspe][Nlys][Nspe][Nspe]-NH2)
- MIC of TM8 (alone, checkerboard) (C. auris CBS10913 [1]): 7.813 µg/mL
- FICTM8 (C. auris CBS10913 [1]; TM8 with Fluconazole): 0.5
- MF of TM8 (modulation factor) (C. auris CBS10913 [1]; TM8 with Fluconazole): 2
- ƩFIC (C. auris CBS10913 [1]; TM8 with Fluconazole): 0.563
- MIC of TM8 (alone, checkerboard) (C. auris CBS12373): 3.9 µg/mL
- FICTM8 (C. auris CBS12373; TM8 with Fluconazole): 0.5
- MF of TM8 (modulation factor) (C. auris CBS12373; TM8 with Fluconazole): 2
- ƩFIC (C. auris CBS12373; TM8 with Fluconazole): 0.563
- Biofilm tolerance factor-inhibition (MBIC/MIC) [2]: 2
- MIC of TM8 (alone, checkerboard) (K. pneumoniae JIE2713): 15.625 µg/mL
- FICTM8 (K. pneumoniae JIE2713; TM8 with Aztreonam): 0.5
- MF of TM8 (modulation factor) (K. pneumoniae JIE2713; TM8 with Aztreonam): 2
- MIC of TM8 + DrugB (K. pneumoniae JIE2713; TM8 with Aztreonam): 7.8125 µg/mL
- ƩFIC (K. pneumoniae JIE2713; TM8 with Aztreonam): 1
- FICTM8 (K. pneumoniae JIE2713; TM8 with Cefotaxime): 0.5
- MF of TM8 (modulation factor) (K. pneumoniae JIE2713; TM8 with Cefotaxime): 2
- ƩFIC (K. pneumoniae JIE2713; TM8 with Cefotaxime): 1
- FICTM8 (K. pneumoniae JIE2713; TM8 with Ciprofloxacin): 0.25
- MF of TM8 (modulation factor) (K. pneumoniae JIE2713; TM8 with Ciprofloxacin): 4
- ƩFIC (K. pneumoniae JIE2713; TM8 with Ciprofloxacin): 0.273
- FICTM8 (K. pneumoniae JIE2713; TM8 with Gentamicin): 0.5
- MF of TM8 (modulation factor) (K. pneumoniae JIE2713; TM8 with Gentamicin): 2
- ƩFIC (K. pneumoniae JIE2713; TM8 with Gentamicin): 1
- MIC of TM8 (alone, checkerboard) (K. pneumoniae JIE2709): 15.625 µg/mL
- FICTM8 (K. pneumoniae JIE2709; TM8 with Cefotaxime): 0.5
- MF of TM8 (modulation factor) (K. pneumoniae JIE2709; TM8 with Cefotaxime): 2
- Outcome (K. pneumoniae JIE2709; TM8 with Cefotaxime): Additive (Additive if 0.5<ƩFIC ≤ 1)
- ƩFIC (K. pneumoniae JIE2709; TM8 with Cefotaxime): 1
- FICTM8 (K. pneumoniae JIE2709; TM8 with Ciprofloxacin): 0.5
- MF of TM8 (modulation factor) (K. pneumoniae JIE2709; TM8 with Ciprofloxacin): 2
- Outcome (K. pneumoniae JIE2709; TM8 with Ciprofloxacin): Additive (Additive if 0.5<ƩFIC ≤ 1)
- ƩFIC (K. pneumoniae JIE2709; TM8 with Ciprofloxacin): 1
- FICTM8 (K. pneumoniae JIE2709; TM8 with Meropenem): 0.5
- MF of TM8 (modulation factor) (K. pneumoniae JIE2709; TM8 with Meropenem): 2
- ƩFIC (K. pneumoniae JIE2709; TM8 with Meropenem): 0.625
- MIC in the presence of sorbitol (C. auris CBS 10913): 7.8 µg/mL
- MIC without sorbitol (C. auris CBS 10913): 7.8 µg/mL (≈ 6.99 µM)
- MBEC for mature biofilm [3]: 125 µg/mL
- MBIC for initial biofilm [4]: 31.25 µg/mL
- Dead cells (C. auris CBS10913 [5]; TM8 at its MIC or 1% Triton X-100, 90 min, PBS control 0.2%): 3.9%
- SYTO 9 fluorescent signal of C. auris (C. auris CBS10913 [5]; TM8 at its MIC, 90 min, 37°C, PBS, PBS control 51.7%): 25.5%
- Cells doubly stained with SYTO 9 and PI (C. auris CBS10913 [5]; TM8 at its MIC, 90 min, PBS control 0.7%): 21.5%
- MIC against MDR ESKAPE pathogens (MDR ESKAPE pathogens): < 13 µg/mL
